From ChEMBL document CHEMBL1201862, “PubChem BioAssay data set” (2004)
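Each compound was tested at five concentrations against cells in 96-well plates for 48 hours. GI50 is the concentration that inhibits growth by half.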 The source made the active and inactive calls. Rule as the data show it: active = GI50 up to about 1.1 µM and inactive = higher.

Experiments:
Assay in all cases: growth of human tumour cells (NCI), 48 h
[1] = tested on: 786-0
[2] = tested on: A549
[3] = tested on: ACHN
[4] = tested on: BT-549
[5] = tested on: CAKI-1
[6] = tested on: CCRF-CEM
[7] = tested on: COLO 205
[8] = tested on: DU-145
[9] = tested on: EKVX
[10] = tested on: HCC 2998
[11] = tested on: HCT-116
[12] = tested on: HCT-15
[13] = tested on: HL-60
[14] = tested on: HOP-62
[15] = tested on: HT-29
[16] = tested on: Hs-578T
[17] = tested on: IGROV-1
[18] = tested on: K562
[19] = tested on: KM12
[20] = tested on: M14
[21] = tested on: MCF7
[22] = tested on: MDA-MB-231
[23] = tested on: MDA-MB-435
[24] = tested on: MDA-N
[25] = tested on: MOLT-4
[26] = tested on: Malme-3M
[27] = tested on: NCI-H226
[28] = tested on: NCI-H23
[29] = tested on: NCI-H460
[30] = tested on: NCI-H522
[31] = tested on: NCI/ADR-RES
[32] = tested on: OVCAR-3
[33] = tested on: OVCAR-4
[34] = tested on: OVCAR-5
[35] = tested on: OVCAR-8
[36] = tested on: PC-3
[37] = tested on: RPMI-8226
[38] = tested on: RXF 393
[39] = tested on: SF-268
[40] = tested on: SF-295
[41] = tested on: SK-MEL-28
[42] = tested on: SK-MEL-2
[43] = tested on: SK-MEL-5
[44] = tested on: SK-OV-3
[45] = tested on: SN12C
[46] = tested on: SNB-19
[47] = tested on: SNB-75
[48] = tested on: SW-620
[49] = tested on: T47D
[50] = tested on: TK-10
[51] = tested on: U-251
[52] = tested on: UACC-257
[53] = tested on: UACC-62
[54] = tested on: UO-31
[55] = tested on: HOP-92
[56] = tested on: LOX IMVI
[57] = tested on: SF-539
[58] = tested on: A498

Measured: GI50

CC(C)(CO)N1C(=O)c2ccccc2C1(O)c1ccc(Cl)cc1 (stereo not drawn)
> 100 µM: [12]
inactive: [1] > 100 µM | [2] > 100 µM | [3] > 100 µM | [4] > 100 µM | [5] > 100 µM | [6] > 100 µM | [7] > 100 µM | [8] > 100 µM | [9] > 100 µM | [10] > 100 µM | [11] > 100 µM | [13] > 100 µM | [14] > 100 µM | [15] > 100 µM | [16] > 100 µM | [17] > 100 µM | [18] > 100 µM | [19] > 100 µM | [20] > 100 µM | [21] > 100 µM | [22] > 100 µM | [23] > 100 µM | [24] > 100 µM | [25] > 100 µM | [26] > 100 µM | [27] > 100 µM | [28] > 100 µM | [29] 84.9 µM | [30] > 100 µM | [31] > 100 µM | [32] 88.7 µM | [33] 94 µM | [34] > 100 µM | [35] > 100 µM | [36] 44.3 µM | [37] > 100 µM | [38] 39.9 µM | [39] > 100 µM | [40] > 100 µM | [41] > 100 µM | [42] 37.8 µM | [43] > 100 µM | [44] > 100 µM | [45] > 100 µM | [46] > 100 µM | [47] > 100 µM | [48] > 100 µM | [49] 72.3 µM | [50] > 100 µM | [51] > 100 µM | [52] > 100 µM | [53] > 100 µM | [54] 63.2 µM

CCOC(=O)c1c(-c2cccc(Cl)c2)c(C(=O)OC)c(C)c2sc(C=O)nc12
19.8 µM: [12]
inactive: [2] 49.9 µM | [3] 16.8 µM | [4] 17.3 µM | [5] 17.5 µM | [6] 12.8 µM | [7] 17.5 µM | [8] 17.7 µM | [9] 16.6 µM | [11] 7.14 µM | [13] 17.7 µM | [14] 13.6 µM | [55] 15.7 µM | [15] 21 µM | [16] 21 µM | [17] 17.5 µM | [18] 27.5 µM | [19] 16.7 µM | [56] 14.3 µM | [20] 17 µM | [21] 17.8 µM | [22] 15.6 µM | [23] 19.6 µM | [24] 19.9 µM | [25] 12.8 µM | [26] 19.3 µM | [27] 21.8 µM | [28] 51.9 µM | [29] 19.5 µM | [30] 16 µM | [31] 25.8 µM | [32] 15.2 µM | [33] 20 µM | [34] 17.5 µM | [35] 19.8 µM | [36] 16.4 µM | [37] 14.1 µM | [38] 23.8 µM | [39] 19 µM | [40] 15.8 µM | [57] 18.1 µM | [41] 18 µM | [42] 16.8 µM | [43] 14.3 µM | [44] 26.7 µM | [45] 16.6 µM | [46] 98.9 µM | [47] 21.6 µM | [48] 48.4 µM | [49] 14.8 µM | [50] 29.3 µM | [51] 17.7 µM | [52] 31.8 µM | [53] 15.8 µM | [54] 17.8 µM

CC(C)CC1[C@@H](OCc2ccccc2)COS(=O)(=O)N1Cc1ccccc1 (stereo partly drawn)
inactive: [1] > 100 µM | [58] > 100 µM | [2] 67.6 µM | [3] > 100 µM | [4] > 100 µM | [5] > 100 µM | [6] > 100 µM | [7] > 100 µM | [8] > 100 µM | [9] > 100 µM | [11] 53.5 µM | [13] 46.2 µM | [14] > 100 µM | [55] > 100 µM | [15] 38.9 µM | [16] 14.7 µM | [17] 81.7 µM | [18] 50.9 µM | [19] 20.7 µM | [56] > 100 µM | [20] > 100 µM | [21] 91.8 µM | [22] > 100 µM | [23] 44.5 µM | [24] > 10 µM | [25] 73.6 µM | [26] 62.5 µM | [27] 86.7 µM | [28] 20.7 µM | [29] > 100 µM | [30] 24.4 µM | [31] 52.6 µM | [32] > 100 µM | [33] > 100 µM | [34] > 100 µM | [35] > 100 µM | [36] 65.5 µM | [37] 31.9 µM | [39] 6.64 µM | [40] 27.6 µM | [57] > 100 µM | [41] > 100 µM | [42] > 100 µM | [43] 83.2 µM | [44] > 100 µM | [45] > 100 µM | [46] 48.1 µM | [47] 82 µM | [48] > 100 µM | [49] > 100 µM | [50] > 100 µM | [51] > 100 µM | [52] > 100 µM | [53] > 100 µM | [54] 27.2 µM
74.5 µM: [12]

CC(=O)C(C(C)=O)[C@H]1OC(C)(C)O[C@H]1[C@H]1COC(C)(C)O1
29.6 µM: [12]
inactive: [1] 51.3 µM | [58] > 100 µM | [2] 42.6 µM | [3] 57.5 µM | [4] 28.4 µM | [5] 73.6 µM | [6] 36.9 µM | [7] 17.7 µM | [8] 42.1 µM | [9] 50.6 µM | [10] 26.5 µM | [11] 45.2 µM | [14] 23.4 µM | [55] 80 µM | [15] 33.6 µM | [16] 44.8 µM | [17] 53.5 µM | [18] 34.4 µM | [19] 35.7 µM | [56] 32.7 µM | [20] 44.3 µM | [21] 35.6 µM | [22] 28.6 µM | [23] 27.7 µM | [24] 55.3 µM | [25] 50.8 µM | [26] > 100 µM | [28] 30.8 µM | [29] 32.4 µM | [30] 33.8 µM | [31] 28.6 µM | [32] 28.6 µM | [33] 40.6 µM | [34] > 100 µM | [35] 34.7 µM | [36] 24.5 µM | [38] 36.2 µM | [39] 63.8 µM | [40] 29.2 µM | [57] 18.7 µM | [41] 97.3 µM | [42] 22.6 µM | [43] 29.1 µM | [44] 29.2 µM | [45] 29.6 µM | [46] 41.6 µM | [47] 42.2 µM | [48] 56.8 µM | [49] 89.1 µM | [50] > 100 µM | [51] 24.9 µM | [52] 49.4 µM | [53] 43.2 µM | [54] 49.8 µM

COc1ccc2c(=O)oc3c(OC)cc(CCN(C)C)c4c(=O)oc1c2c34 [TASPINE]
active: [6] 0.948 µM
inactive: [58] 10.3 µM | [4] 7.74 µM | [7] 9.16 µM | [8] 8.51 µM | [16] 10.3 µM | [20] 9.31 µM | [21] 5.86 µM | [22] 8.55 µM | [23] 8.32 µM | [24] 7.82 µM | [25] 6.79 µM | [27] 24.2 µM | [28] 9.27 µM | [30] 6.76 µM | [31] 7.46 µM | [32] 9.86 µM | [34] 11.7 µM | [35] 6.93 µM | [36] 10.5 µM | [39] 7.33 µM | [42] 12.1 µM | [43] 7.29 µM | [45] 7.78 µM | [46] 8.93 µM | [49] 9.35 µM | [51] 9.68 µM | [53] 8.97 µM
